Assay results: the NIST ThermoML archive (doi:10.1021/acs.jced.8b01135)

Test: xn = mol fraction of the nth substance listed
Details: 102 kPa, Liquid; for speed of sound: Frequency=3 MHz, Single path-length method; for mass density: Vibrating tube method; for viscosity: Concentric cylinders viscometry

CCCCCC1CCCCC1 [pentylcyclohexane] + CCCCCCCCCCCC
Details | mass density [kg/m3] | speed of sound [m/s] | viscosity [mPa·s]
288.15 K, x1 = 0.1009 | 757.14 | 1321.1 | –
288.15 K, x1 = 0.2001 | 761.98 | 1324.9 | –
288.15 K, x1 = 0.3003 | 767.03 | 1329.1 | –
288.15 K, x1 = 0.4009 | 772.26 | 1333.4 | –
288.15 K, x1 = 0.5001 | 777.64 | 1338.1 | –
288.15 K, x1 = 0.6 | 783.17 | 1343 | –
288.15 K, x1 = 0.7003 | 789 | 1348.1 | –
288.15 K, x1 = 0.8136 | 795.88 | 1354.4 | –
288.15 K, x1 = 0.9082 | 801.77 | 1359.9 | –
288.15 K, x1 = 1 | 807.78 | 1365.8 | –
293.15 K, x1 = 0.1009 | 753.52 | 1301.6 | 1.5
293.15 K, x1 = 0.2001 | 758.36 | 1305.5 | 1.51
293.15 K, x1 = 0.3003 | 763.41 | 1309.6 | 1.52
293.15 K, x1 = 0.4009 | 768.64 | 1313.9 | 1.54
293.15 K, x1 = 0.5001 | 774.02 | 1318.6 | 1.55
293.15 K, x1 = 0.6 | 779.55 | 1323.4 | 1.57
293.15 K, x1 = 0.7003 | 785.37 | 1328.5 | 1.6
293.15 K, x1 = 0.8136 | 792.25 | 1334.7 | 1.62
293.15 K, x1 = 0.9082 | 798.13 | 1340.2 | 1.66
293.15 K, x1 = 1 | 804.13 | 1346 | 1.69
298.15 K, x1 = 0.1009 | 749.9 | 1282.5 | –
298.15 K, x1 = 0.2001 | 754.73 | 1286.2 | –
298.15 K, x1 = 0.3003 | 759.79 | 1290.3 | –
298.15 K, x1 = 0.4009 | 765.01 | 1294.6 | –
298.15 K, x1 = 0.5001 | 770.39 | 1299.2 | –
298.15 K, x1 = 0.6 | 775.92 | 1304 | –
298.15 K, x1 = 0.7003 | 781.74 | 1309.1 | –
298.15 K, x1 = 0.8136 | 788.61 | 1315.2 | –
298.15 K, x1 = 0.9082 | 794.48 | 1320.6 | –
298.15 K, x1 = 1 | 800.48 | 1326.4 | –
303.15 K, x1 = 0.1009 | 746.27 | 1263.2 | 1.28
303.15 K, x1 = 0.2001 | 751.1 | 1267.1 | 1.29
303.15 K, x1 = 0.3003 | 756.16 | 1271.2 | 1.3
303.15 K, x1 = 0.4009 | 761.38 | 1275.4 | 1.31
303.15 K, x1 = 0.5001 | 766.76 | 1280 | 1.32
303.15 K, x1 = 0.6 | 772.28 | 1284.8 | 1.34
303.15 K, x1 = 0.7003 | 778.1 | 1289.8 | 1.35
303.15 K, x1 = 0.8136 | 784.97 | 1295.8 | 1.38
303.15 K, x1 = 0.9082 | 790.84 | 1301.1 | 1.4
303.15 K, x1 = 1 | 796.82 | 1306.7 | 1.43
313.15 K, x1 = 0.1009 | 738.99 | 1225.5 | 1.08
313.15 K, x1 = 0.2001 | 743.83 | 1229.3 | 1.09
313.15 K, x1 = 0.3003 | 748.88 | 1233.4 | 1.1
313.15 K, x1 = 0.4009 | 754.1 | 1237.6 | 1.11
313.15 K, x1 = 0.5001 | 759.47 | 1242.1 | 1.12
313.15 K, x1 = 0.6 | 764.99 | 1246.8 | 1.14
313.15 K, x1 = 0.7003 | 770.8 | 1251.7 | 1.15
313.15 K, x1 = 0.8136 | 777.66 | 1257.6 | 1.17
313.15 K, x1 = 0.9082 | 783.52 | 1262.8 | 1.19
313.15 K, x1 = 1 | 789.49 | 1268.2 | 1.21
323.15 K, x1 = 0.1009 | 731.68 | 1188.3 | 0.941
323.15 K, x1 = 0.2001 | 736.51 | 1192.1 | 0.949
323.15 K, x1 = 0.3003 | 741.57 | 1196.2 | 0.957
323.15 K, x1 = 0.4009 | 746.79 | 1200.3 | 0.967
323.15 K, x1 = 0.5001 | 752.16 | 1204.8 | 0.976
323.15 K, x1 = 0.6 | 757.67 | 1209.6 | 0.988
323.15 K, x1 = 0.7003 | 763.48 | 1214.3 | 1
323.15 K, x1 = 0.8136 | 770.33 | 1220.1 | 1.02
323.15 K, x1 = 0.9082 | 776.17 | 1225.1 | 1.03
323.15 K, x1 = 1 | 782.14 | 1230.5 | 1.05
333.15 K, x1 = 0.1009 | 724.33 | 1151.9 | 0.819
333.15 K, x1 = 0.2001 | 729.17 | 1155.8 | 0.825
333.15 K, x1 = 0.3003 | 734.22 | 1159.8 | 0.833
333.15 K, x1 = 0.4009 | 739.44 | 1163.9 | 0.841
333.15 K, x1 = 0.5001 | 744.8 | 1168.3 | 0.851
333.15 K, x1 = 0.6 | 750.31 | 1172.9 | 0.861
333.15 K, x1 = 0.7003 | 756.11 | 1177.6 | 0.871
333.15 K, x1 = 0.8136 | 762.96 | 1183.4 | 0.887
333.15 K, x1 = 0.9082 | 768.8 | 1188.4 | 0.897
333.15 K, x1 = 1 | 774.75 | 1193.5 | 0.914
